Measurements from US11866433B2, “Diarylthiohydantoin compound as androgen receptor antagonist” (CHIA TAI TIANQING PHARMACEUTICAL GROUP CO., LTD., priority 2017, dated 2024).

Legend:
[1] = tested on: Human prostate cancer LNCaP-FGC cells; test: In vivo pharmacodynamic study on subcutaneous xenograft tumor model of human prostate cancer LNCaP-FGC cells; parameters: species or system CB-17 SCID mice; settings: after 21 days of administration, vs solvent control
Protocol: 2.1 Experimental Animals • Species: Mice • Strain: CB-17 SCID mice • Week age and body weight: 6-8 weeks old, 18-22 g body weight • Gender: male • Supplier: Beijing Vital River Laboratory Animal Technology Co., Ltd • Animal Certificate No.: 11400700184227 3. Experimental Method and Steps 3.1 Cell Culture
Human prostate cancer LNCaP-FGC cells (ATCC, Manassas, Virginia) were cultured in vitro monolayers under the culture conditions of RPM11640 medium supplemented with […] fetal bovine serum at 37° C. with 5% CO2. Routine digestion treatment with trypsin-EDTA was performed twice a week for passage. When the cell saturation was 80%-90%, the cells were collected, counted, and inoculated.
0.2 mL (10×10^6) of LNCaP-FGC cells (10×10^6+Matrigel, 1:1) was inoculated subcutaneously to the right back of each CB-17 SCID mouse. When the average tumor volume reached 100-150 mm^3, administration in groups was started.
The tumor diameters were measured with a vernier caliper twice a week. The calculation formula of the tumor volume is: V=0.5a×b^2, wherein a and b represent the long diameter and the short diameter of the tumor, respectively. The antitumor efficacy of the compounds were evaluated by TGI (%) or a relative tumor proliferation rate T/C (%). TGI(%)=[(1−(average tumor volume of a treatment group at the end of drug administration−average tumor volume of the treatment group at the beginning of drug administration))/(average tumor volume of the vehicle control group at the end of treatment−average tumor volume of the vehicle control group at the beginning of treatment)]×100%. The calculation formula of the relative tumor proliferation rate T/C (%) is as follows: T/C %=TRTV/CRTV×100% (TRTV: RTV of a treatment group; CRTV: RTV of a negative control group). The relative tumor volume (RTV) is calculated based on the tumor measurement results, and the calculation formula is RTV=Vt/V0, wherein V0 is the average tumor volume measured at the time of administration in groups (i.e., do), Vt is the average tumor volume at one measurement, and TRTV and CRTV are the data obtained on the same day.
The statistical analysis includes mean and standard error of mean (SEM) of the tumor volume at each time point for each group. […] The comparison between two groups was analyzed by T-test, and the comparison between three or more groups was analyzed by one-way ANOVA. If there was a significant difference in the F value, the Games-Howell method was used for testing. If there was no significant difference in the F value, the Dunnet (2-sided) method was used for analysis. All data analysis was performed by using SPSS 17.0. “p<0.05” was considered a significant difference.

androgen receptor (AR) = target: T1, androgen receptor (AR) (Homo sapiens, UniProt P10275); test: Antagonism of compounds on nuclear translocation of androgen receptor (PathHunter NHR cell lines); assay type: cell-based; settings: antagonist mode, agonist 6a-Fluorotestosterone 0.06 μM (EC80)
T1 sequence (P10275 1-920): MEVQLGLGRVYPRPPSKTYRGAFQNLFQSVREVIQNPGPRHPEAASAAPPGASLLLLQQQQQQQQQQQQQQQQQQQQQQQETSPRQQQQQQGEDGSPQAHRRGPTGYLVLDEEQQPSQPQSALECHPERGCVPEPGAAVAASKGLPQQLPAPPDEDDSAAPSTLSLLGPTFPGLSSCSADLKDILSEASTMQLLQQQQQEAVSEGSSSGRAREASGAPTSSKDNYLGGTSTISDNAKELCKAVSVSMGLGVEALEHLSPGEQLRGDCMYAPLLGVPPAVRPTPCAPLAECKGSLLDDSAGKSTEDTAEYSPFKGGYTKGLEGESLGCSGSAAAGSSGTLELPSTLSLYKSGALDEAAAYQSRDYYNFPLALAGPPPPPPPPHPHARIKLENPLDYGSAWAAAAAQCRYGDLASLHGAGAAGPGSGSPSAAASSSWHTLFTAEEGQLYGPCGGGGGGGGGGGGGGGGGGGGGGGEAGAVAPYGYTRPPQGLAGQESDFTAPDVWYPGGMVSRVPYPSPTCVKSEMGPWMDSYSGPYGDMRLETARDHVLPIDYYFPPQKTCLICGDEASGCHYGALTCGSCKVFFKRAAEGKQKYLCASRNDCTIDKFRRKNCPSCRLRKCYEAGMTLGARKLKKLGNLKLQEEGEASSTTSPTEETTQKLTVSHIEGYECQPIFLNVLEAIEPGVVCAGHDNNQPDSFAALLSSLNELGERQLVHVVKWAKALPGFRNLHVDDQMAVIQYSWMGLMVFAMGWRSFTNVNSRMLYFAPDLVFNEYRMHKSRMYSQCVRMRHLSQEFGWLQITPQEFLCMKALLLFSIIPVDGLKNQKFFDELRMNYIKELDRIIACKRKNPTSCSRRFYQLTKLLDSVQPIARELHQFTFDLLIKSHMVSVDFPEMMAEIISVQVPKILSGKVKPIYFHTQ
Protocol: Example 75 Test of Antagonism of Compounds on Nuclear Translocation of Androgen Receptor (AR)
1. PathHunter NHR cell lines were recovered and cultured for amplification.
2. The cells were inoculated onto a 384-well plate prior to testing, and incubated at 37° C. The serum for culture was filtered with charcoal-dextran to reduce the hormone level therein.
3. In the detection of the antagonistic function, a compound was added to the cells and incubated for 60 min. The working concentration of the test compound was diluted from 10 μM at a 3-fold concentration gradient, respectively including: […]. Then, an agonist 6a-Fluorotestosterone 0.06 μM (concentration: EC80, i.e., 80% agonistic compound concentration) was added, and the mixture was incubated at 37° C. or at room temperature for 3-16 h.
4. Signal detection: 12.5 μL or 15 μL (50%, v/v) PathHunter detection mixed solution (kit: DiscoverX product catalog number: 93-0001 series) was added, and incubated at room temperature for 1 h. The chemiluminescent signal was read with a PerkinElmer Envision™ instrument.
5. Data analysis: The compound activity was analyzed with CBIS data analysis software (ChemInnovation, CA). The calculation formula of the inhibition percent of the antagonist is as follows: IC50 inhibition ratio (%)=[…]×(1−(average RLU value of the test compound−average RLU value of the blank control group)/(average RLU value of EC80 control group−average RLU value of the blank control group)).

Compound	TGI ([1]; 50 mg/kg PO QD)	relative tumor proliferation rate T/C ([1]; 50 mg/kg PO QD)	IC50 (androgen receptor (AR))	TGI ([1]; 10 mg/kg PO QD)	relative tumor proliferation rate T/C ([1]; 10 mg/kg PO QD)	TGI ([1]; 20 mg/kg PO QD)	relative tumor proliferation rate T/C ([1]; 20 mg/kg PO QD)
CCc1nc(OCCO)c2cc(N3C(=S)N(c4ccc(C#N)c(C(F)(F)F)c4)C(=O)C3(C)C)cc(F)c2n1 [Compound 10]	83.0%	23.8%	1710 nM	–	–	–	–
CCc1cc(=O)n2cc(N3C(=S)N(c4ccc(C#N)c(C(F)(F)F)c4)C(=O)C3(C)C)cc(F)c2n1 [Compound 35]	–	–	2310 nM	59.36%	47.39%	76.00%	32.47%
CCc1cc(=O)n2cc(N3C(=S)N(c4ccc(C#N)c(Cl)c4)C(=O)C3(C)C)cc(F)c2n1 [Compound 58]	–	–	950 nM	62.75%	43.93%	76.16%	32.37%
